Data published in PubChem BioAssay (NCI).
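1) Cells in 96-well plates. 2) Compound, 48 h, 5 concentrations. 3) Linear interpolation between surrounding doses. 4) Unreached endpoint = highest concentration. TGI: concentration producing complete growth inhibition.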

Tests used:
Assay in all cases: growth of human tumour cells (NCI), 48 h
NCI-H522 lung = tested on: NCI-H522 lung
LXFL 529 NSCLC = tested on: LXFL 529 NSCLC
DMS 114 small cell lung = tested on: DMS 114 small cell lung
UO-31 renal = tested on: UO-31 renal
A549 NSCLC = tested on: A549 NSCLC
RXF 393 renal = tested on: RXF 393 renal
SK-MEL-5 melanoma = tested on: SK-MEL-5 melanoma
SNB-19 CNS = tested on: SNB-19 CNS
NCI-H460 lung = tested on: NCI-H460 lung
DLD-1 colon = tested on: DLD-1 colon
M19-MEL melanoma = tested on: M19-MEL melanoma
RPMI-8226 leukemia = tested on: RPMI-8226 leukemia
HOP-62 NSCLC = tested on: HOP-62 NSCLC
SF-295 CNS = tested on: SF-295 CNS
DMS 273 small cell lung = tested on: DMS 273 small cell lung
SNB-75 CNS = tested on: SNB-75 CNS
HCT-15 colon = tested on: HCT-15 colon
XF 498 CNS = tested on: XF 498 CNS
UACC-257 melanoma = tested on: UACC-257 melanoma
SK-MEL-2 melanoma = tested on: SK-MEL-2 melanoma
MALME-3M melanoma = tested on: MALME-3M melanoma
SF-268 CNS = tested on: SF-268 CNS
SN12C renal = tested on: SN12C renal
RXF-631 renal = tested on: RXF-631 renal
COLO 205 colon = tested on: COLO 205 colon
KM20L2 colon = tested on: KM20L2 colon
UACC-62 melanoma = tested on: UACC-62 melanoma
EKVX NSCLC = tested on: EKVX NSCLC
HOP-92 NSCLC = tested on: HOP-92 NSCLC
HL-60(TB) leukemia = tested on: HL-60(TB) leukemia
TK-10 renal = tested on: TK-10 renal
NCI-H23 lung = tested on: NCI-H23 lung
786-0 renal = tested on: 786-0 renal
K-562 leukemia = tested on: K-562 leukemia
IGROV1 ovarian = tested on: IGROV1 ovarian
KM12 colon = tested on: KM12 colon
OVCAR-8 ovarian = tested on: OVCAR-8 ovarian
HOP-18 NSCLC = tested on: HOP-18 NSCLC
NCI-H226 lung = tested on: NCI-H226 lung
CCRF-CEM leukemia = tested on: CCRF-CEM leukemia
HT29 colon = tested on: HT29 colon
ACHN renal = tested on: ACHN renal
U251 CNS = tested on: U251 CNS
SK-OV-3 ovarian = tested on: SK-OV-3 ovarian
SK-MEL-28 melanoma = tested on: SK-MEL-28 melanoma
HCT-116 colon = tested on: HCT-116 colon
OVCAR-3 ovarian = tested on: OVCAR-3 ovarian
MOLT-4 leukemia = tested on: MOLT-4 leukemia
SR leukemia = tested on: SR leukemia
M14 melanoma = tested on: M14 melanoma
SF-539 CNS = tested on: SF-539 CNS
SW-620 colon = tested on: SW-620 colon
HCC-2998 colon = tested on: HCC-2998 colon
CAKI-1 renal = tested on: CAKI-1 renal
A498 renal = tested on: A498 renal
OVCAR-4 ovarian = tested on: OVCAR-4 ovarian
OVCAR-5 ovarian = tested on: OVCAR-5 ovarian
SNB-78 CNS = tested on: SNB-78 CNS
LOX IMVI melanoma = tested on: LOX IMVI melanoma

Q: `CO[C@H](c1ccccc1)[C@H](C)N(C)c1ccc2ccccc2c1C1=NC(C)(C)CO1` was tested. Which TGI (NCI-H522 lung) did it give?
A: The TGI was 19.4 µM.

Q: And the TGI (LXFL 529 NSCLC)?
A: The TGI was 49.6 µM.

Q: And the TGI (DMS 114 small cell lung)?
A: Its TGI is 33.7 µM.

Q: What about the TGI (UO-31 renal) of the same compound?
A: The TGI was 27.9 µM.

Q: And the TGI (A549 NSCLC)?
A: The TGI was 35.2 µM.

Q: And the TGI (RXF 393 renal)?
A: The TGI was 27.6 µM.

Q: What about the TGI (SK-MEL-5 melanoma) of the same compound?
A: Its TGI is greater than 100 µM.

Q: And the TGI (SNB-19 CNS)?
A: Its TGI is 84.7 µM.

Q: What about the TGI (NCI-H460 lung) of the same compound?
A: The TGI was 33 µM.

Q: And the TGI (DLD-1 colon)?
A: The TGI was 31.8 µM.

Q: What about the TGI (M19-MEL melanoma) of the same compound?
A: Its TGI is 36.6 µM.

Q: What about the TGI (RPMI-8226 leukemia) of the same compound?
A: The TGI was 53.2 µM.

Q: And the TGI (HOP-62 NSCLC)?
A: The TGI was 36 µM.

Q: What about the TGI (SF-295 CNS) of the same compound?
A: Its TGI is 30.8 µM.

Q: What about the TGI (DMS 273 small cell lung) of the same compound?
A: The TGI was 39.2 µM.

Q: What about the TGI (SNB-75 CNS) of the same compound?
A: The TGI was 32.4 µM.

Q: And the TGI (HCT-15 colon)?
A: The TGI was 29.7 µM.

Q: What about the TGI (XF 498 CNS) of the same compound?
A: The TGI was 33.5 µM.

Q: And the TGI (UACC-257 melanoma)?
A: The TGI was 30.6 µM.

Q: And the TGI (SK-MEL-2 melanoma)?
A: The TGI was 29.7 µM.

Q: What about the TGI (MALME-3M melanoma) of the same compound?
A: Its TGI is 33 µM.

Q: And the TGI (SF-268 CNS)?
A: Its TGI is 36.1 µM.

Q: What about the TGI (SN12C renal) of the same compound?
A: Its TGI is 33.2 µM.

Q: What about the TGI (RXF-631 renal) of the same compound?
A: The TGI was 39.8 µM.

Q: And the TGI (COLO 205 colon)?
A: Its TGI is 40.9 µM.

Q: What about the TGI (KM20L2 colon) of the same compound?
A: The TGI was 27.4 µM.

Q: What about the TGI (UACC-62 melanoma) of the same compound?
A: The TGI was greater than 100 µM.

Q: And the TGI (EKVX NSCLC)?
A: The TGI was 44.2 µM.

Q: And the TGI (HOP-92 NSCLC)?
A: The TGI was 30.6 µM.

Q: And the TGI (HL-60(TB) leukemia)?
A: The TGI was 61.3 µM.

Q: What about the TGI (TK-10 renal) of the same compound?
A: Its TGI is 61.8 µM.

Q: What about the TGI (NCI-H23 lung) of the same compound?
A: Its TGI is 31 µM.

Q: What about the TGI (786-0 renal) of the same compound?
A: The TGI was 30.1 µM.

Q: And the TGI (K-562 leukemia)?
A: Its TGI is 88.5 µM.

Q: And the TGI (IGROV1 ovarian)?
A: The TGI was greater than 100 µM.

Q: What about the TGI (KM12 colon) of the same compound?
A: Its TGI is 40.2 µM.

Q: And the TGI (OVCAR-8 ovarian)?
A: The TGI was 26.7 µM.

Q: And the TGI (HOP-18 NSCLC)?
A: The TGI was 31.9 µM.

Q: What about the TGI (NCI-H226 lung) of the same compound?
A: Its TGI is 34.8 µM.

Q: And the TGI (CCRF-CEM leukemia)?
A: Its TGI is 48.9 µM.

Q: And the TGI (HT29 colon)?
A: The TGI was 25.1 µM.

Q: What about the TGI (ACHN renal) of the same compound?
A: Its TGI is 36.4 µM.

Q: What about the TGI (U251 CNS) of the same compound?
A: The TGI was 30.5 µM.

Q: What about the TGI (SK-OV-3 ovarian) of the same compound?
A: Its TGI is 33.3 µM.

Q: What about the TGI (SK-MEL-28 melanoma) of the same compound?
A: Its TGI is 34 µM.

Q: And the TGI (HCT-116 colon)?
A: Its TGI is 34.6 µM.

Q: What about the TGI (OVCAR-3 ovarian) of the same compound?
A: The TGI was 30.7 µM.

Q: And the TGI (MOLT-4 leukemia)?
A: Its TGI is 39.3 µM.

Q: What about the TGI (SR leukemia) of the same compound?
A: Its TGI is 50.1 µM.

Q: And the TGI (M14 melanoma)?
A: Its TGI is 33.6 µM.

Q: And the TGI (SF-539 CNS)?
A: Its TGI is 29.9 µM.

Q: And the TGI (SW-620 colon)?
A: The TGI was 33.4 µM.

Q: Which results are given for `Cc1cc(C)c2[s+]snc2c1`?
A: TGI (NCI-H522 lung): 77.6 µM; TGI (LXFL 529 NSCLC): > 100 µM; TGI (UO-31 renal): > 100 µM; TGI (A549 NSCLC): > 100 µM; TGI (RXF 393 renal): 91.6 µM; TGI (HCC-2998 colon): > 100 µM; TGI (SK-MEL-5 melanoma): > 100 µM; TGI (CAKI-1 renal): > 100 µM; TGI (A498 renal): > 100 µM; TGI (SNB-19 CNS): > 100 µM; TGI (OVCAR-4 ovarian): > 100 µM; TGI (NCI-H460 lung): > 100 µM; TGI (DLD-1 colon): > 100 µM; TGI (M19-MEL melanoma): > 100 µM; TGI (HOP-62 NSCLC): > 100 µM; TGI (SF-295 CNS): > 100 µM; TGI (DMS 273 small cell lung): > 100 µM; TGI (SNB-75 CNS): > 100 µM; TGI (XF 498 CNS): > 100 µM; TGI (UACC-257 melanoma): > 100 µM; TGI (SK-MEL-2 melanoma): > 100 µM; TGI (MALME-3M melanoma): > 100 µM; TGI (SF-268 CNS): > 100 µM; TGI (SN12C renal): > 100 µM; TGI (RXF-631 renal): > 100 µM; TGI (COLO 205 colon): > 100 µM; TGI (KM20L2 colon): > 100 µM; TGI (UACC-62 melanoma): > 100 µM; TGI (EKVX NSCLC): > 100 µM; TGI (HL-60(TB) leukemia): 44.7 µM; TGI (TK-10 renal): > 100 µM; TGI (NCI-H23 lung): > 100 µM; TGI (786-0 renal): > 100 µM; TGI (OVCAR-5 ovarian): > 100 µM; TGI (SNB-78 CNS): > 100 µM; TGI (K-562 leukemia): > 100 µM; TGI (IGROV1 ovarian): > 100 µM; TGI (KM12 colon): > 100 µM; TGI (OVCAR-8 ovarian): > 100 µM; TGI (HOP-18 NSCLC): > 100 µM; TGI (NCI-H226 lung): > 100 µM; TGI (LOX IMVI melanoma): > 100 µM; TGI (CCRF-CEM leukemia): > 100 µM; TGI (HT29 colon): > 100 µM; TGI (ACHN renal): > 100 µM; TGI (U251 CNS): > 100 µM; TGI (SK-OV-3 ovarian): > 100 µM; TGI (SK-MEL-28 melanoma): > 100 µM; TGI (HCT-116 colon): > 100 µM; TGI (OVCAR-3 ovarian): > 100 µM; TGI (MOLT-4 leukemia): > 100 µM; TGI (SR leukemia): 77 µM; TGI (M14 melanoma): > 100 µM; TGI (SF-539 CNS): > 100 µM; TGI (SW-620 colon): > 100 µM
